US20020132832A1, “Treatment of erectile dysfunction” (priority 2001, published 2002)

Experiments:
[1] = male, rat, in vivo
Description: (§1) Using an in vivo rat model, the effect of Rho-kinase inhibition on corpus cavernosum (CCP) and mean arterial pressure (MAP) was examined. The left carotid artery and right corpus cavernosum of the rat penis were cannulated for continuous monitoring of MAP and CCP respectively as described by Mills, T., et al., (Biol. Reprod. 59, 1413-1418, 1998; J. Appl. Physiol., 91: 1269-1273, 2001). Rats were anesthetized with intramuscular ketamine (87 mg/kg body wt) plus xylazine (13 mg/kg) and maintained on supplemental ketamine as needed. Vasoactive drugs were administered through a cannula in the left corpus cavernosum. For experiments measuring voltage-stimulated changes in CCP and MAP, stainless steel bipolar electrodes were positioned on the right major pelvic ganglion. […] All pressure data were collected for analysis using Polyview data-acquisition software.

erectile tissue = assay: Erectile response ICP/MAP to NO donor and Rho-kinase inhibitor injected into erectile tissue; format: in vivo; conditions: small/low dose injected directly into erectile tissue
SHRSP rats = assay: Ganglionic-mediated ICP/MAP in stroke prone spontaneously hypertensive rats (SHRSP); format: in vivo, rat; conditions: 50 nmol/kg into left corpus cavernosum, 1-5 V
Source text: (§2) In these experiments, male Sprague-Dawley rats (200-250 g; Harlan) were made DOCA-salt hypertensive by uninephrectomy and implantation of a deoxycorticosterone-acetate (DOCA) silastic pellet at the back of the neck. DOCA rats received saltwater (1% NaCl, 0.2% KCl) for 4 weeks. Sham control rats were uninephrectomized and drank tap water. Male stroke prone-spontaneously hypertensive rats (12 weeks old, 350 g) were obtained from the breeding colony at the Medical College of Georgia, Augusta, Ga. Systolic blood pressures were taken by tail cuff measurement (DOCA/sham: after 4 weeks treatment; SHRSP: at 12 weeks of age). Measurement of ICP/MAP was as described above. […] Subsequently, the ICP/MAP response to ganglionic stimulation was assessed over a range of voltages.

corpus cavernosum [2] = assay: Intracavernosal injection in anesthetized rat, CCP/MAP without ganglionic stimulation; format: in vivo; design: time to plateau of CCP/MAP increase: unit not given here
Description: as §1

castrated rats = assay: Erectile response to graded ganglionic stimulation in castrated rats; format: in vivo, rat; conditions: intracavernosal injection, 1-5 V
Source text: Rats which have been rendered severely hypogonadal by surgical castration show a diminished erectile response.

cultured cells = conditions: cited from earlier work
rat aorta = assay: Rat aortic rings, endothelium intact or denuded, PE-induced contraction; format: cell-based
Source text: In these experiments, aorta (3 mm rings) were cleaned of adherent connective tissue and hung on stainless steel hooks attached between a force transducer and stationary mount for the measurement of isometric force generation. Endothelium was removed from some vessels by gentle rubbing of the lumen with a steel wire. Aortic rings were then placed in an isolated chamber, bathed in physiologic salt solution (mmol/L: 130 NaCl, 4.7 KCl, 1.18 KHPO4, 1.17 MgSO4, 1.6 CaCl2-2H2O, 14.9 NaHCO3, 5.5 dextrose, and 0.03 CaNa2EDTA; 37° C.) and gassed with 95% O2/5%CO2 Rings were set at 3 g passive tension and treated with indomethacin (1 μmol/L) to inhibit prostaglandin synthesis. Following a one hour equilibration period, vessels were contracted with phenylephrine (PE) (0.1 μmol/L) and subsequently treated with acetylcholine (1 μmol/L) to test for the presence of endothelium.

[3] = tested on: animal model of hypertension; conditions: cited from earlier work
cavernous sinuses = assay: Erectile response to 5V ganglionic stimulation after vasoconstrictor injected into cavernous sinuses; format: in vivo; conditions: for effect on erectile response to 5V ganglionic stimulation: METHOX 10 μg/kg or ET-1 50 pmol into cavernous sinuses
Description: Thus, FIGS. 8 and 9 show results where after an initial (5V) ganglionic stimulation (Cont), either the α-adrenergic agonist, Methoxamine (METHOX) (10 μg/kg) or endothelin-1 (ET-1) (50 pmol) was injected into the cavernous sinuses.

corpus cavernosum [4] = assay: Ganglionic (major pelvic ganglion) stimulated increase in CCP/MAP in anesthetized rat; format: in vivo; conditions: for effect on baseline CCP or MAP: no stimulation; for CCP/MAP at 5 V (mean ± s.e.m.): n=4
Description: as §1
After initial measurements of CCP and MAP during ganglionic stimulation, rats were treated with L-NNA, L-NAME (200 μg/kg body weight), or saline control, and after 5 min ganglionic stimulation and CCP/MAP measurements were repeated. […] After 5 min, a 5-V stimulation was repeated, and CCP and MAP measurements were recorded.
Rho-kinase inhibition can also overcome muscle contraction due to inhibition of cyclic GMP formation. […] After 5 min, a 5-V stimulation was repeated, and CCP and MAP measurements were recorded.

[5] = tested on: isolated rat cavernosal tissue; assay: Isolated rat cavernosal strips, relaxation of agonist-induced contraction; format: cell-based; conditions: for effect on relaxation response of cavernosal strips to 1 μM Y-27632: 10 μM incubation
Description: Cavernosal strips (3-4 mm long) were prepared by removal of the corpus spongiosum and dorsal vein, and the proximal portion of the corpus cavernosum divided across the midline of the intact penis. Right and left longitudinal strips were mounted in an isolated muscle bath for measurement of contractile force generation. Strips were bathed in physiologic salt solution (130 mM NaCl, 4.7 mM KCl, 1.18 mM KHPO4, 1.17 mM […], 1.6 mM CaCl2-2H2O, 14.9 mM NaHCO3, 5.5 mM dextrose, and 0.03 mM CaNa2 EDTA), at 37° C., and gassed with 95% O2/5% CO2.

[6] = tested on: DOCA-salt hypertensive rats; assay: Ganglionic-mediated ICP/MAP in DOCA-salt hypertensive rats; format: in vivo, rat; conditions: 50 nmol/kg into left corpus cavernosum, 1-5 V
Source text: as §2

corpus cavernosum [7] = assay: Erectile response to electrical stimulation of the autonomic ganglion after phosphatase inhibitor injected into corpus cavernosum; format: in vivo; conditions: data not shown
Source text: In an embodiment, the target of Rho-kinase is MLC phosphatase (FIG. 2). […] With MLC phosphatase activity inhibited, the resulting high levels of phosphorylated myosin light chain keep the sexual organs in a nonerect state.

[8] = 200 μg/kg into cavernosal sinuses

## CC(N)[C@H]1CC[C@H](C(=O)Nc2ccncc2)CC1 (single isomer, unassigned; (+)) [Y-27632, monohydrate]
[1]
  dose at which MAP was significantly decreased: ≥ 400 nmol/kg
Erectile tissue
  erectile response (increase in ICP/MAP): cause an erectile response
SHRSP rats
  erectile response (ICP/MAP): significantly increasing the erectile response
Corpus cavernosum [2]; 2.0-400 nmol/kg body weight in 2 μl saline into left corpus cavernosum sinuses, no stimulation
  increase in CCP/MAP: significant dose-dependent increase
Corpus cavernosum [2]; 2.0-400 nmol/kg intracavernosal
  time to plateau of CCP/MAP increase: about four
Corpus cavernosum [2]; range of 2.0-200 nmol/kg, independent of significant changes in MAP
  maximum increase in CCP/MAP over control: 74%
Castrated rats
  erectile response: restored to levels similar to those in age-matched intact animals
Cultured cells
  smooth muscle relaxation: cause smooth muscle relaxation
Rat aorta; 1 μmol/L prior to PE contraction, endothelium-denuded vessels
  vasodilator sensitivity to SNP: increased vasodialator sensitivity to SNP
Rat aorta; 1 μmol/L, endothelium denuded vessels
  inhibition of force generation to 10 μmol/L PE: completely ineffective
Rat aorta; 1 μmol/L, endothelium intact rings
  inhibition of force generation to 10 μmol/L PE: significant inhibition of force generation
Rat aorta; 1 μmol/L, endothelium intact, in presence of L-NNA (100 μmol/L) or ODQ (10 μmol/L)
  inhibition of contractile response to 10 μmol/L PE: significantly less effective
Rat aorta; 10 μmol/L or 100 μmol/L, endothelium denuded rings
  inhibition of contractile response to 10 μmol/L PE: concentration dependent inhibition
[3]
  smooth muscle relaxation: cause smooth muscle relaxation
Cavernous sinuses; 50 nmol before ET-1 50 pmol, 5V
  effect on vasoconstrictor action of ET-1: vasoconstrictor effect was prevented
Cavernous sinuses; 50 nmol before METHOX 10 μg/kg, 5V
  effect on vasoconstrictor action of METHOX: vasoconstrictor effect was prevented
Corpus cavernosum [4]; 50 nmol/kg after L-NAME, 5 V
  effect on attenuation of ganglionic-induced CCP/MAP increase by NOS inhibition: overcome
Corpus cavernosum [4]; 200 nmol/kg into cavernous sinuses, 0-5 V
  effect on CCP/MAP response to ganglionic stimulation: potentiated the CCP/MAP response to ganglionic stimulation at each voltage
Corpus cavernosum [4]; 200 nmol/kg, lowest stimulation voltages
  ganglionic-stimulated rise in CCP/MAP at lowest voltages: near maximal levels
Corpus cavernosum [4]; 2.0-200 nmol/kg, 5 V
  increase in ganglionic-stimulated CCP/MAP at 5 V: 21-38%
[5]; Rattus norvegicus, read-out: IC50, relaxation of PE-induced tone
  IC50: 1000 nM
[6]
  erectile response (ICP/MAP): elevating the erectile response to near normal levels

## COC(=O)[C@@H](N)CCCNC(=N)N[N+](=O)[O-] [L-NAME, N^ω-nitro-L-arginine methyl ester]
Corpus cavernosum [4]; 200 μg/kg into cavernosal sinuses, 5 V
  effect on increase in CCP/MAP induced by 5 V stimulation: significantly attenuated
Corpus cavernosum [4]; [8]
  effect on baseline CCP or MAP: did not alter CCP or MAP from baseline
[5]
  effect on relaxation response of cavernosal strips to 1 μM Y-27632: did not significantly alter
[5]; 10 μM, 15 min
  effect on PE-induced contraction: no effect

## N=C(NCCC[C@H](N)C(=O)O)N[N+](=O)[O-] [L-NNA, N^ω-nitro-L-arginine]
Corpus cavernosum [4]; [8]
  effect on baseline CCP or MAP: did not alter CCP or MAP from baseline

## CN(C)c1ccc2nc3ccc(=[N+](C)C)cc-3sc2c1 [MB, methylene blue]
Corpus cavernosum [4]; MB 300-500 μg/kg intracavernosal, Y-27632 50-200 nmol/kg in continued presence of MB
  CCP/MAP at 5 V (mean ± s.e.m.): 0.49±0.04
[5]
  effect on relaxation response of cavernosal strips to 1 μM Y-27632: did not significantly alter

## COc1ccc(OC)c(C(O)C(C)N)c1 (centres unmarked) [METHOX, Methoxamine]
Cavernous sinuses
  effect on erectile response to 5V ganglionic stimulation: lowered the erectile response

## O=c1onc2cnc3ccccc3n12 [ODQ, 1H-[1,2,4]oxadiozolo-[4,3-a]quinoxalin-1]
Corpus cavernosum [4]; ODQ 300-500 μg/kg intracavernosal, Y-27632 50-200 nmol/kg in continued presence of ODQ
  CCP/MAP at 5 V (mean ± s.e.m.): 0.50±0.07

## [Na+].[Na+].[Na+].[O]=[V]([O-])([O-])[O-] [SOV, sodium orthovanadate]
Corpus cavernosum [7]; 0.1 and 1 μmol/L SOV
  inhibition of erectile response: significant inhibition
Corpus cavernosum [7]; injected into corpus cavernosum immediately before stimulation
  effect on erectile response: inhibits the erectile response in a dose dependent manner

## (+/−)-(E)-methyl-2-((E)-hydroxyimino)-5-nitro-6-methoxy-3-hexenamide [NOR-1]
Erectile tissue
  erectile response (increase in ICP/MAP): intermediate erectile response

## endothelin-1 (CSCSSLMDKECVYFCHLDIIW; Endothelin-1; UniProt P05305 53-73, looked up) [ET-1, vasoconstrictor]
Cavernous sinuses
  effect on erectile response to 5V ganglionic stimulation: lowered the erectile response
